{"source": "patent US4725578A", "about": "“Compounds having therapeutic effect and the preparation thereof” (Tobishi Pharmaceutical Co., Ltd., priority 1986, dated 1988)", "key": {"[1]": {"test": "Neuropharmacological multidimentional observation (modified Arwin and Smith method)", "assay_type": "in vivo, 4-weeks CD-1 (IRC) mice", "conditions": "intraperitoneal, 1 to 20 mg/kg, observed every 30 minutes for 180 minutes, compared with patterns of known medicines", "experimental": "In this test, other pharmacological effects which may be obtained by these compounds were investigated.\nEach compound of the invention was intraperitoneally administered to 4-weeks CD-1 (IRC) mice (Nippon Charles Liver K.K.) in the dose of 1 to 20 mg/kg with using mice groups consisting of three mice per group. […] The observation was carried out according to the modified Arwin method and Smith method, i.e., neuropharmacological multidimentional observation method.\nMaking a comparison between the symptom observed and the pattern of the pharmacological action due to the known medicines, it has been discovered that each compound of the invention has the following pharmacological effect."}, "Colon. 38": {"test_system": "Colon. 38", "test": "Colon. 38 (sc-ip), inhibition", "assay_type": "in vivo", "conditions": "4 mg/kg × 11, after 17 days"}, "B-16 melanoma": {"test_system": "B-16 melanoma", "test": "B16 melanoma (ip-ip), survival T/C", "assay_type": "in vivo, mice", "experimental": "(§1) In the Table, the symbol T/C % means Treatment/Control %, that is the increase in life when the control is 100. The values are obtained by implanting tumor cells to groups of mice (or rats), administering the compound being tested in various amounts every 24 hours after the implantation of the tumor cells and then calculating the ratio, the median survival time of the group to which the compound has been administered to the survival of the control, multiplied by a factor of 100. This method is used in the screening of U.S. National Cancer Institute. […]\n(§2) In Table 7, the symbol \"i.P.-i.P.\" means that the tumor cells are implanted intraperitoneally and the compounds being tested are also administered intraperitoneally. The symbol \"TR\" is the therapeutic ratio obtained by dividing the dose which provides a maximum T/C value, by the dose which provides a minimum T/C value."}, "[2]": {"test": "Toxicity test, lethal dose (Litchfield-Wilcoxon)", "assay_type": "in vivo, male 4-weeks CD-1 (ICR) mice", "conditions": "suspension in 0.5% CMC, 7 days observation", "experimental": "With respect to the compounds of this invention, the lethal dose was determined as follows.\nBy using male 4-weeks CD-1 (ICR) mice consisting of 5 to 10 mice per group, the desired amount of each compound of this invention was suspended in 0.5% CMC solution and the resultant suspension was administered to each mouse intraperitoneally or intravenously. Observing the life or death as well as the general symptome during 7 days after the administration of the compounds, the value of LD50 for each compounds was estimated from the lethal population observed on the basis of the Litchfield-Wilcoxon method."}, "Lewis Lung Carcinoma": {"test_system": "Lewis Lung Carcinoma", "test": "Lewis Lung Carcinoma (sc-ip), inhibition", "assay_type": "in vivo", "conditions": "4 mg/kg × 11, after 17 days"}, "P-388 cells": {"test_system": "P-388 cells", "test": "Antineoplastic action against implanted P-388 cells (ip-ip), survival T/C", "assay_type": "in vivo, CDFl mice", "conditions": "for T/C % (Treatment/Control %): Table 6, P388, intraperitoneal", "experimental": "To the peritoneal cavity of each group of mice consisting of six CDFl mice per group, 10^6 /0.1 ml of P-388 cells or 10^5 /0.1 ml of L-1210 cells were implanted. […]\nIn the Table, the symbol T/C % means Treatment/Control %, that is the increase in life when the control is 100. […] This method is used in the screening of U.S. National Cancer Institute.\nas §2"}, "Erlich carcinoma": {"test_system": "Erlich carcinoma", "test": "Erlich carcinoma (sc-ip), inhibition", "assay_type": "in vivo", "conditions": "2 mg/kg × 11, after 14 days"}, "P 388 [3]": {"test_system": "P 388", "test": "P 388 (ip-iv), survival T/C", "assay_type": "in vivo, mice", "experimental": "(§3) In the Table, the symbol T/C % means Treatment/Control %, that is the increase in life when the control is 100. The values are obtained by implanting tumor cells to groups of mice (or rats), administering the compound being tested in various amounts every 24 hours after the implantation of the tumor cells and then calculating the ratio, the median survival time of the group to which the compound has been administered to the survival of the control, multiplied by a factor of 100. This method is used in the screening of U.S. National Cancer Institute.\n(§4) In Table 9, \"iv\" and \"sc\" means that the administration of the compounds is carried out intravenously and the implantation of the tumor cells is carried out subcutaneously."}, "L-1210 cells": {"test_system": "L-1210 cells", "test": "Antineoplastic action against implanted L-1210 cells (ip-ip), survival T/C", "assay_type": "in vivo, CDFl mice", "experimental": "In this animal test, the antineoplastic action against the implanted tumor was examined in lower animals, in vivo, in respect of the compounds according to the present invention, by using CDFl mice.\nTo the peritoneal cavity of each group of mice consisting of six CDFl mice per group, 10^6 /0.1 ml of P-388 cells or 10^5 /0.1 ml of L-1210 cells were implanted. […] While to the control groups of CDFl mice, P-388 and L-1210 cells were implanted in the same manner and they were bred without administration of the compounds.\nas §3, §2"}, "Colon 26": {"test_system": "Colon 26", "test": "Colon 26 (ip-ip), survival T/C", "assay_type": "in vivo", "experimental": "as §3"}, "MM2": {"test_system": "MM2", "test": "MM2 (ip-ip), survival T/C", "assay_type": "in vivo, mice", "conditions": "for T/C / mice living more than 60 days (60<): additional tests, MM2 (ip-ip)", "experimental": "as §1, §2\nThe term in Table 7, last column \"3/6 60<\", means that 3 mice out of 6 mice continue to live more than 60 days after the implantation of the tumor cells."}, "P 388 [4]": {"test_system": "P 388", "test": "P 388 (sc-iv), survival T/C", "assay_type": "in vivo, mice", "experimental": "as §3, §4"}}, "note": "Entries after “also recorded” stand apart in the source; their conditions may differ."}
{"compound": "COc1ccc(C[C@H]2C(=O)N[C@@H](C)C(=O)N(C)[C@H]3Cc4ccc(cc4)Oc4cc(ccc4OC)C[C@@H](C(=O)N[C@H](C)C(=O)N[C@@H](C)C(=O)N2C)N(C)C3=O)cc1", "note": "[Methylether of TPC-A]", "values": [{"measurement": "Pharmacological effect estinated", "setting": "[1]", "value": "emetic action; also recorded: anorexigenic action"}, {"measurement": "Inhibition", "setting": "Colon. 38", "value": 70.1, "unit": "%"}, {"measurement": "B16 (i.P. - i.P.) T/C (%)", "setting": "B-16 melanoma; Table 7, dose 0.25 mg/kg", "value": 133.8, "unit": "%"}, {"measurement": "B16 (i.P. - i.P.) T/C (%)", "setting": "B-16 melanoma; Table 7, dose 1 mg/kg", "value": 135.3, "unit": "%"}, {"measurement": "B16 (i.P. - i.P.) T/C (%)", "setting": "B-16 melanoma; Table 7, dose 2 mg/kg", "value": 139.1, "unit": "%"}, {"measurement": "B16 (i.P. - i.P.) T/C (%)", "setting": "B-16 melanoma; Table 7, dose 4 mg/kg", "value": 143.0, "unit": "%"}, {"measurement": "LD50 and 95% Confidence Limit", "setting": "[2]; intraperitoneal", "value": "10.0(7.0-14.3) mg/kg"}, {"measurement": "LD50 and 95% Confidence Limit", "setting": "[2]; intravenous", "value": "16.5(12.6-21.5) mg/kg"}, {"measurement": "Inhibition", "setting": "Lewis Lung Carcinoma", "value": 51.1, "unit": "%"}, {"measurement": "T/C % (Treatment/Control %)", "setting": "P-388 cells; dose 0.01 mg/kg (printed in the 0.05 column with note \"dose, 0.01\")", "value": 130.1, "unit": "%"}, {"measurement": "T/C % (Treatment/Control %)", "setting": "P-388 cells; dose 0.5 mg/kg", "value": 156.7, "unit": "%"}, {"measurement": "T/C % (Treatment/Control %)", "setting": "P-388 cells; dose 2 mg/kg", "value": 164.2, "unit": "%"}, {"measurement": "T/C % (Treatment/Control %)", "setting": "P-388 cells; dose 4 mg/kg", "value": 173.6, "unit": "%"}, {"measurement": "P388 (i.P. - i.P.) T/C (%)", "setting": "P-388 cells; Table 7, dose 0.01 mg/kg", "value": 130.1, "unit": "%"}, {"measurement": "P388 (i.P. - i.P.) T/C (%)", "setting": "P-388 cells; Table 7, dose 0.5 mg/kg", "value": 156.7, "unit": "%"}, {"measurement": "P388 (i.P. - i.P.) T/C (%)", "setting": "P-388 cells; Table 7, dose 1 mg/kg", "value": 159.9, "unit": "%"}, {"measurement": "P388 (i.P. - i.P.) T/C (%)", "setting": "P-388 cells; Table 7, dose 2 mg/kg", "value": 164.2, "unit": "%"}, {"measurement": "P388 (i.P. - i.P.) T/C (%)", "setting": "P-388 cells; Table 7, dose 4 mg/kg", "value": 173.6, "unit": "%"}, {"measurement": "Inhibition", "setting": "Erlich carcinoma", "value": 60.5, "unit": "%"}, {"measurement": "T/C", "setting": "P 388 [3]; 0.56 mg/kg × 9", "value": 115.7, "unit": "%"}, {"measurement": "T/C", "setting": "P 388 [3]; 2.22 mg/kg × 9", "value": 160.8, "unit": "%"}, {"measurement": "L1210 (i.P. - i.P.) T/C (%)", "setting": "L-1210 cells; Table 7, dose 0.01 mg/kg", "value": 105.6, "unit": "%"}, {"measurement": "L1210 (i.P. - i.P.) T/C (%)", "setting": "L-1210 cells; Table 7, dose 0.5 mg/kg", "value": 118.6, "unit": "%"}, {"measurement": "L1210 (i.P. - i.P.) T/C (%)", "setting": "L-1210 cells; Table 7, dose 1 mg/kg", "value": 120.7, "unit": "%"}, {"measurement": "L1210 (i.P. - i.P.) T/C (%)", "setting": "L-1210 cells; Table 7, dose 2 mg/kg", "value": 129.3, "unit": "%"}, {"measurement": "L1210 (i.P. - i.P.) T/C (%)", "setting": "L-1210 cells; Table 7, dose 5 mg/kg", "value": 137.3, "unit": "%"}, {"measurement": "T/C", "setting": "Colon 26; 1 mg/kg × 9", "value": 113.6, "unit": "%"}, {"measurement": "T/C", "setting": "Colon 26; 2 mg/kg × 9", "value": 125.0, "unit": "%"}, {"measurement": "T/C", "setting": "Colon 26; 4 mg/kg × 9", "value": 125.9, "unit": "%"}, {"measurement": "MM2 (i.P. - i.P.) T/C (%)", "setting": "MM2; Table 7, dose 0.2 mg/kg", "value": 103.1, "unit": "%"}, {"measurement": "MM2 (i.P. - i.P.) T/C (%)", "setting": "MM2; Table 7, dose 1 mg/kg", "value": 103.1, "unit": "%"}, {"measurement": "MM2 (i.P. - i.P.) T/C (%)", "setting": "MM2; Table 7, dose 2 mg/kg", "value": 118.4, "unit": "%"}, {"measurement": "MM2 (i.P. - i.P.) T/C (%)", "setting": "MM2; Table 7, dose 5 mg/kg", "value": 90.8, "unit": "%"}]}
{"compound": "COc1ccc(C[C@H]2C(=O)N[C@H](C)C(=O)N(C)[C@@H]3Cc4ccc(cc4)Oc4cc(ccc4O)C[C@H](C(=O)N[C@@H](C)C(=O)N[C@@H](C)C(=O)N2C)N(C)C3=O)cc1.COc1ccc(C[C@H]2C(=O)N[C@H](C)C(=O)N(C)[C@@H]3Cc4ccc(cc4)Oc4cc(ccc4O)C[C@H](C(=O)N[C@@H](C)C(=O)N[C@@H](C)C(=O)N2C)N(C)C3=O)cc1.COc1ccc(C[C@H]2C(=O)N[C@H](C)C(=O)N(C)[C@@H]3Cc4ccc(cc4)Oc4cc(ccc4O)C[C@H](C(=O)N[C@@H](C)C(=O)N[C@@H](C)C(=O)N2C)N(C)C3=O)cc1.COc1ccc(C[C@H]2C(=O)N[C@H](C)C(=O)N(C)[C@@H]3Cc4ccc(cc4)Oc4cc(ccc4O)C[C@H](C(=O)N[C@@H](C)C(=O)N[C@@H](C)C(=O)N2C)N(C)C3=O)cc1.O.O.O.O.O", "note": "[TPC-A]", "values": [{"measurement": "T/C", "setting": "P 388 [4]; 5 mg/kg × 7", "value": 179.6, "unit": "%"}, {"measurement": "mice living more than 60 days (60<)", "setting": "P 388 [4]; 5 mg/kg × 7", "value": "2/7"}, {"measurement": "T/C", "setting": "P 388 [4]; 7 mg/kg × 7", "value": 153.7, "unit": "%"}, {"measurement": "mice living more than 60 days (60<)", "setting": "P 388 [4]; 7 mg/kg × 7", "value": "1/7"}, {"measurement": "T/C", "setting": "P 388 [4]; 10 mg/kg × 7", "value": 127.8, "unit": "%"}, {"measurement": "Pharmacological effect estinated", "setting": "[1]", "value": "emetic action; also recorded: anorexigenic action; also recorded: psychotropic action; also recorded: vasoconstrictive; also recorded: papaverine action; also recorded: antiper-"}, {"measurement": "LD50 and 95% Confidence Limit", "setting": "[2]; intravenous", "value": "34.0(28.1-41.2) mg/kg"}, {"measurement": "T/C % (Treatment/Control %)", "setting": "P-388 cells; dose 10 mg/kg", "value": 187.4, "unit": "%"}, {"measurement": "T/C", "setting": "P 388 [3]; 5.56 mg/kg × 9", "value": 121.4, "unit": "%"}, {"measurement": "T/C", "setting": "MM2; 2.78 mg/kg × 9", "value": 138.7, "unit": "%"}, {"measurement": "T/C", "setting": "MM2; 5.56 mg/kg × 9", "value": 231.2, "unit": "%"}, {"measurement": "mice living more than 60 days (60<)", "setting": "MM2; 5.56 mg/kg × 9", "value": "2/6"}, {"measurement": "T/C", "setting": "MM2; 6.94 mg/kg × 9", "value": 184.3, "unit": "%"}, {"measurement": "mice living more than 60 days (60<)", "setting": "MM2; 6.94 mg/kg × 9", "value": "1/7"}]}
